{"source": "paper PMC7056826", "about": "“Crystal Structure of the Chloroplastic Glutamine Phosphoribosylpyrophosphate Amidotransferase GPRAT2 From Arabidopsis thaliana” (Frontiers in Plant Science, 2020)", "key": {"AtGPRAT2 [1]": {"target": "T1, AtGPRAT2 (Arabidopsis thaliana, UniProt Q9STG9, R264K)", "T1 construct": "gene ASE2; residues 75-561 without predicted chloroplast transit peptide, C-terminal His tag (pET22b), E. coli BL21; propeptide autocatalytically removed, first visible residue Cys87 (87-546 visible); 4Fe-4S cluster; homo-tetramer in crystal", "T1 sequence (Q9STG9 87-561 R264K)": "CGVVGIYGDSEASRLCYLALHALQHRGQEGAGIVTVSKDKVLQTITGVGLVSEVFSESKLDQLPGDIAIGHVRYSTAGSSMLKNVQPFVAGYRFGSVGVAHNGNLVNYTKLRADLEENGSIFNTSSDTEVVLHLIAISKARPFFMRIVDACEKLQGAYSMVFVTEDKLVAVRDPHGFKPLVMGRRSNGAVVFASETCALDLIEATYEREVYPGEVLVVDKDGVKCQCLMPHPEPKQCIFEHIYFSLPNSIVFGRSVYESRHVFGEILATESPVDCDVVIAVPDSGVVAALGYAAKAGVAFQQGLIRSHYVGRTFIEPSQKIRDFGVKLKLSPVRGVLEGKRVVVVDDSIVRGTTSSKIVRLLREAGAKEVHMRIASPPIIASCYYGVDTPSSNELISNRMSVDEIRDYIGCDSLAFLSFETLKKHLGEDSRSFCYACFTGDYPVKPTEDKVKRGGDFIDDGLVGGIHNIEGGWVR", "experiment": "isothermal titration calorimetry, single site model", "assay_type": "binding", "conditions": "20 mM HEPES pH 7.5, 200 mM NaCl, 25 °C; stated gain"}, "AtGPRAT2 [2]": {"target": "T2, AtGPRAT2 (Arabidopsis thaliana, UniProt Q9STG9)", "T2 construct": "gene ASE2; residues 75-561 without predicted chloroplast transit peptide, C-terminal His tag (pET22b), E. coli BL21; propeptide autocatalytically removed, first visible residue Cys87 (87-546 visible); 4Fe-4S cluster; homo-tetramer in crystal", "T2 sequence (Q9STG9 87-561)": "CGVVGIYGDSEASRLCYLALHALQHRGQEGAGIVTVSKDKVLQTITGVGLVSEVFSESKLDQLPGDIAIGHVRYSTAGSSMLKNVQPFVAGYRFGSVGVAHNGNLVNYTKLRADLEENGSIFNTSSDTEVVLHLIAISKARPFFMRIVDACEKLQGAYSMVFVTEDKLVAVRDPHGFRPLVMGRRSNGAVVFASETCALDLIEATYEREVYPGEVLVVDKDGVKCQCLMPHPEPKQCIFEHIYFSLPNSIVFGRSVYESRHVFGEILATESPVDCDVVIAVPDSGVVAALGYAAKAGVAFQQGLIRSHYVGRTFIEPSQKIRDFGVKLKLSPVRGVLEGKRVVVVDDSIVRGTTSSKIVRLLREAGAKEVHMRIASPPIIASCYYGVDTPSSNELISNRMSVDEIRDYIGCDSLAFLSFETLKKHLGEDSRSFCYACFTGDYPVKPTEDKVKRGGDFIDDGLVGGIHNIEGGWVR", "experiment": "coupled glutamate dehydrogenase assay, NADH at […] nm, mixed inhibition model", "assay_type": "biochemical"}, "AtGPRAT2 [3]": {"target": "T2, AtGPRAT2", "experiment": "isothermal titration calorimetry, single site model", "assay_type": "binding", "from_the_text": "isothermal titration calorimetry, single site model on AtGPRAT2 | isothermal titration calorimetry (ITC) assay with wildtype, R264K and Y329A mutants of AtGPRAT2"}, "AtGPRAT2 [4]": {"target": "T3, AtGPRAT2 (Arabidopsis thaliana, UniProt Q9STG9, Y329A)", "T3 construct": "gene ASE2; residues 75-561 without predicted chloroplast transit peptide, C-terminal His tag (pET22b), E. coli BL21; propeptide autocatalytically removed, first visible residue Cys87 (87-546 visible); 4Fe-4S cluster; homo-tetramer in crystal", "T3 sequence (Q9STG9 87-561 Y329A)": "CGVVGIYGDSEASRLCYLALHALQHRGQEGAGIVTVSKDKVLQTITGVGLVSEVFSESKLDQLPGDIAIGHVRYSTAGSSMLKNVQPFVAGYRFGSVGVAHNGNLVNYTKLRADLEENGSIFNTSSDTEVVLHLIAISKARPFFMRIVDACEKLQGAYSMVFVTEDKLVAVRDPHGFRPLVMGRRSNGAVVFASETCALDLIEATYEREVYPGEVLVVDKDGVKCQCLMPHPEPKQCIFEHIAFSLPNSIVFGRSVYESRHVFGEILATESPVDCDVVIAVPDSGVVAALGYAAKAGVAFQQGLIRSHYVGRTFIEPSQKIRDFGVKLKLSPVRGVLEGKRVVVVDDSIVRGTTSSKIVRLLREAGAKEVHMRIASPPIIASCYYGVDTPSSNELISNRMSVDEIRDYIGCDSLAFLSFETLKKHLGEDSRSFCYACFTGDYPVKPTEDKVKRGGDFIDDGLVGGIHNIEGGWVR", "experiment": "isothermal titration calorimetry, single site model", "assay_type": "binding"}, "purified protein": {"substrate": "O=P(O)(O)OC[C@H]1O[C@H](OP(=O)(O)OP(=O)(O)O)[C@H](O)[C@@H]1O", "experiment": "purified protein", "assay_type": "biochemical, Arabidopsis thaliana", "conditions": "10 mM Gln, 37.5 mM NAD+, 110 mM potassium phosphate pH 8.0, no inhibitor"}, "[5]": {"target": "the molecule itself", "experiment": "crystal structure; sitting-drop vapor diffusion at 291 K; 0.1 M sodium citrate tribasic pH 5.6, 1.5 M ammonium phosphate monobasic, 0.1 M citric acid pH 3.4; space group P3121, two molecules in the asymmetric unit; tetramer assigned with the PISA server"}}, "data": [{"molecule": "CC(C)n1nc(CC(=O)O)nc1-c1ccc(Cl)cc1", "note": "[DAS734, [5-(4-chlorophenyl)-1-isopropyl-1H-[1,2,4]triazol-3-yl]-acetic acid]", "values": [{"measurement": "binding abolished", "setting": "AtGPRAT2 [1]", "value": "the R264K mutation abolished the binding of DAS734 to AtGPRAT2"}, {"measurement": "Ki", "setting": "AtGPRAT2 [2]", "value": 5290, "unit": "nM"}, {"measurement": "Kd", "setting": "AtGPRAT2 [3]", "value": "165 ± 15.8", "unit": "nM"}, {"measurement": "Kd", "setting": "AtGPRAT2 [4]", "value": "1750 ± 38.4", "unit": "nM"}]}, {"molecule": "Arabidopsis thaliana chloroplastic glutamine phosphoribosylpyrophosphate amidotransferase 2, AtGPRAT2^75-561 (enzyme, UniProt Q9STG9 75-561, looked up, AtGPRAT2 (At4g34740), Arabidopsis thaliana, residues 75-561, without the predicted chloroplast transit peptide; Each protomer carries a 4Fe-4S cofactor; also called GPRATase) CGVVGIYGDSEASRLCYLALHALQHRGQEGAGIVTVSKDKVLQTITGVGLVSEVFSESKLDQLPGDIAIGHVRYSTAGSSMLKNVQPFVAGYRFGSVGVAHNGNLVNYTKLRADLEENGSIFNTSSDTEVVLHLIAISKARPFFMRIVDACEKLQGAYSMVFVTEDKLVAVRDPHGFRPLVMGRRSNGAVVFASETCALDLIEATYEREVYPGEVLVVDKDGVKCQCLMPHPEPKQCIFEHIYFSLPNSIVFGRSVYESRHVFGEILATESPVDCDVVIAVPDSGVVAALGYAAKAGVAFQQGLIRSHYVGRTFIEPSQKIRDFGVKLKLSPVRGVLEGKRVVVVDDSIVRGTTSSKIVRLLREAGAKEVHMRIASPPIIASCYYGVDTPSSNELISNRMSVDEIRDYIGCDSLAFLSFETLKKHLGEDSRSFCYACFTGDYPVKPTEDKVKRGGDFIDDGLVGGIHNIEGGWVR", "values": [{"measurement": "Km", "setting": "purified protein", "value": 350, "unit": "µM"}, {"measurement": "stoichiometry N", "setting": "[5]", "value": 4}]}]}
